Legend:
Type in all cases: in vivo, mouse (D2.B10-Dmd^mdx/J)
[1] = tested on: D2.B10 mice; assay: Grip strength test (FNmax) in D2.B10 mice; conditions: for FNmax from day 62 onwards: Givinostat 5, 10 and 37.5 mg/kg, vs vehicle; for FNmax from day 62 onwards / FNmax from day 21 until days 49-62: prednisone 1 mg/kg i.p. weekly; for FNmax from day 21 until days 49-62: Givinostat 10 and 37.5 mg/kg
Description: (§1) For the efficacy studies, C57BL/10 J (Stock No: 000665) wild type (wt) and C57BL/10ScSn-Dmd^mdx/J (Stock No: 001801) 7–8-week-old male mice, DBA/2J wt (Stock No: 000671), and D2.B10-Dmd^mdx/J (Stock No: 013141) 6–7-week-old male mice were purchased from The Jackson Laboratories (Bar Harbor, Maine, USA). After 5 days of acclimatization in the animal facility, mice were randomized into different treatment groups based on their BW. C57BL/10J wt mice were assigned to the naive wt group (healthy mice that received no treatment, but were subjected to functional tests), whereas mdx mice were assigned to the following groups (9 mice/group; 4–5 mice/cage): naive mdx (mice that received no treatment, but were subjected to functional tests), vehicle (0.5% methylcellulose, p.o.), and Givinostat (0.1, 0.3, 1, 5, 10, 25, and 37.5 mg/kg, p.o.). DBA/2J mice were assigned to the naive wt group (healthy mice that received no treatment, but were subjected to functional tests), whereas D2.B10 mice were assigned to the following groups (12–13 mice/group; 4–5 mice/gage): vehicle (filtered tap water, p.o.), Givinostat (1, 5, 10, and 37.5 mg/kg, p.o.), prednisone 1 mg/kg, and Deflazacort 1 mg/kg (i.p.).
(§2) In the efficacy studies, Givinostat powder (ITF2357) was suspended in 0.5% methylcellulose (Sigma-Aldrich) and administered p.o. (by gavage) at the doses of 0.1, 0.3, 1, 5, 10, 25, and 37.5 mg/kg qdx5x15weeks (administration volume per mouse: 10 mL/kg) in mdx mice (see Additional Figure 1A). Vehicle-treated mdx mice received 0.5% methylcellulose suspension. Givinostat suspension was stored at + 4 °C, and it was freshly prepared every 7 days. Probably due to the impairment of their tongue and masticatory muscles, the oral gavage procedure turned out to be difficult to perform, and chronic treatment of D2.B10 mice by this route was considered to bear a high risk of damaging the esophagus. For this reason, Givinostat was administered in the drinking water. Givinostat was dissolved in filtered tap water and was administered in drinking water (throughout 24 h) for 105 days at the dose of 1, 5, 10, and 37.5 mg/kg/day, according to a daily estimate of water consumption of 4 ml/mouse/day. Water consumption was weekly monitored throughout the entire duration of the study weighing the bottle of each cage (maximum 4 mice per cage). Prednisone and Deflazacort powder (Sigma-Aldrich) was dissolved in 2% DMSO (Sigma-Aldrich) and diluted in sterile saline on injection days. Both drugs were administered weekly (for 15 weeks) by i.p. injection at the dose of 1 mg/kg in a volume of 10 mL/kg. Givinostat and steroid treatments started on days 7 and 9 of the experimental plan, respectively (see Additional Figure 1B). All mice were monitored daily and tolerability was evaluated on the basis of BW and clinical signs.
(§3) In both efficacy studies, the effectiveness of treatments was evaluated every week by measuring the forelimb strength by a grip strength meter (Ugo Basile SRL, Italy). BW of mdx (see Additional Figure 2) and D2.B10 mice (see Additional Figure 3) was also measured in order to normalize the absolute grip strength of each mouse with respect to its BW. The protocol provides 5 measurements for each mouse (the procedure was compliant with the standard operating procedures of TREAT–NMD Neuromuscular Network). The highest recorded value of maximal normalized strength (FNmax) obtained for each mouse at all the time points (from T0 to T15) was used for further analysis.
After taking baseline readings for behavioral assays (FNmax and distance run by the animals), mice were re-randomized based on these two parameters, also considering the previous randomization performed on their BW.
The grip strength and run to exhaustion tests were performed during the light-cycle phase, in the early hours of the morning (8:00–11:30 am). […]

[2] = tested on: D2.B10 mice; assay: Treadmill run to exhaustion test in D2.B10 mice; conditions: for Effect on distance run, significance: Deflazacort, prednisone 1 mg/kg, lower doses of Givinostat
Description: as §1, §2
Run to exhaustion performance of mdx and D2.B10 mice was evaluated every 14 or 21 days, respectively, using a treadmill apparatus (Ugo Basile SRL, Italy). The exhaustion protocol consisted in an initially horizontal running at 5 m/min for 5 min after which the speed was increased 1 m/min every minute until exhaustion (the procedure was compliant with the standard operating procedures of TREAT–NMD Neuromuscular Network). […]
After taking baseline readings for behavioral assays (FNmax and distance run by the animals), mice were re-randomized based on these two parameters, also considering the previous randomization performed on their BW. […]

[3] = Body weight of D2.B10 mice
Experimental: as §2, with “Givinostat and steroid treatments started on days 7 and 9 of the experimental plan, respectively (see Additional Figure 1B).” left out
as §3, with “The protocol provides 5 measurements for each mouse (the procedure was compliant with the standard operating procedures of TREAT–NMD Neuromuscular Network).” left out

## CCN(CC)Cc1ccc2cc(COC(=O)Nc3ccc(C(=O)NO)cc3)ccc2c1 [Givinostat]
[1]
  Lowest dose with significant effect on FNmax from day 21 to day 104: 10 mg/kg
  FNmax from day 62 onwards: remained significantly elevated until day 104
  FNmax from day 21 until days 49-62: increased the FNmax of D2.B10-treated mice to that of wt healthy mice
[1]; 1-37.5 mg/kg/day in drinking water
  Effect on FNmax: dose-dependent
[1]; Deflazacort 1 mg/kg i.p. weekly, Givinostat 1 mg/kg
  Time interval of significant FNmax improvement: from day 42 to days 90/104
[1]; days 90 and 97, p < 0.05 and p < 0.01
  Difference in FNmax, Givinostat 37.5 mg/kg vs Deflazacort: a significant difference was also seen
[1]; drinking water
  Dose of maximal efficacy on FNmax: 37.5 mg/kg
[1]; p < 0.05
  Significant differences in FNmax, Givinostat 37.5 mg/kg versus prednisone: observed only at days 90 and 97
[2]
  Effect on distance run, significance: not statistically significant
[2]; Givinostat top dose (37.5 mg/kg), day 105 (vehicle 296 ± 17 m)
  Distance run: 473 ± 22 meters
[2]; highest dose, day 105
  Time to exhaustion: significantly prolonged the time to exhaustion
[3]; D2.B10 mice
  Body weight vs vehicle-treated mice: no significant differences

## C[C@]12C=CC(=O)C=C1CC[C@@H]1[C@@H]2C(=O)C[C@@]2(C)[C@H]1CC[C@]2(O)C(=O)CO [prednisone]
[1]; 1 mg/kg i.p. weekly, all the treatment period
  Effect of steroid on FNmax in comparison: comparable to that of Givinostat 5 e 10 mg/kg
[1]
  FNmax from day 62 onwards: remained significantly elevated until day 104
  FNmax from day 21 until days 49-62: increased the FNmax of D2.B10-treated mice to that of wt healthy mice
[2]
  Effect on distance run, significance: not statistically significant
[3]; mouse, in vivo
  Body weight vs vehicle-treated mice: no significant differences

— article PMC8296708, “The pan HDAC inhibitor Givinostat improves muscle function and histological parameters in two Duchenne muscular dystrophy murine models expressing different haplotypes of the LTBP4 gene” (Skeletal Muscle, 2021)
